These results are taken from US20190218170A1, “BRANCHED TRIALKYLAMINE PRECURSORS, INTERMEDIATES, PRODUCTS MADE THEREFROM AND PROCESSES OF MANUFACTURE” (priority 2018, published 2019).

One series has as its system Candida albicans. As to the kind of experiment: Microplate dilution assay MIC/MLC. The class given is cell-based. Particulars: for MIC < 10%: growth less than 10% of control; for MIC < 50%: growth less than 50% of control; for MLC: minimum lethal concentration. As for the experimental part:
(§1) The minimum inhibitory concentration (MIC) and the minimum lethal concentration (MLC) of the chemicals were determined using a microplate dilution assay. Quats were provided as aqueous solutions, while Triclosan and Chloroxylenol were provide as powders which were first dissolved at 5 weight percent in absolute ethanol. A two-fold serial dilution series of each test chemical was prepared in Trypticase Soy Broth at 20% of the standard concentration (TSB20) and in Sabouraud Dextrose Broth at 20% of the standard concentration (SDB20) in 96-well micro-titer plates. A total of 10 dilutions were prepared and four replicate tests were performed for each dilution. […] Control solutions containing only media were included for each plate. Suspensions of Staphylococcus aureus, Escherichia coli, and Candida albicans were prepared from one-day old agar plate cultures in Butterfields Phosphate Diluent to a concentration of approximately 10^7 to 10^8 cells per milliliter. Each test well was inoculated with the diluted culture suspensions at a concentration of 10^3 to 10^4 cells per well and then incubated at 32° C. with shaking at 150 rpm for approximately 24 hours, after which the optical density of each well was determined spectrophotometrically at 600 nm. Wells containing uninoculated media without test chemical were included in each plate as negative controls and, following inoculation, as positive controls.
(§2) Selected wells at or below the MIC were tested for MLC by spotting three microliters from each replicate well onto Trypticase Soy agar for S. aureus and E. coli, or Sabouraud Dextrose agar for C. albicans.

A further series relates to Escherichia coli. As to the kind of experiment: Microplate dilution assay MIC/MLC. In kind it is cell-based. To be noted: for MIC < 10%: growth less than 10% of control, 24 hours, 32° C.; for MIC < 50%: growth less than 50% of control; for MLC: minimum lethal concentration. As to the method: as §1, §2
The next series concerns Staphylococcus aureus. Description: Microplate dilution assay MIC/MLC. In kind it is cell-based. Particulars: for MIC < 10%: growth less than 10% of control; for MIC < 50%: growth less than 50% of control; for MLC: minimum lethal concentration. As for the experimental part:
as §1, §2

A short description of series [1]: Ready Biodegradability CO2 Evolution Test OECD 301B. As for the experimental part: The biodegradability of the branched aldehyde intermediates of Example 2 (4-ethyl-2-methyloctanal) and Example 25 (2,4-diethyl-2-octenal) were determined by the Ready Biodegradability—CO2 Evolution Test—Degradation of test compound according to OECD Guidelines for Testing of Chemicals CO2 Evolution Test 301B.

A short description of series [2]: Solubility of N-alkyl-N-methylglucamines in MilliQ water and SLS/SDS solution. To be noted: for Solubility in 10 wt % SLS / Solubility in pure MilliQ: heated to 80° C., ultrasonicated, cooled to room temperature; for Solubility in 10 wt % SLS: pH 10.8-11.1; for Solubility in 10 wt % SDS: pH 11.8-12.1; for Solubility in pure MilliQ: pH 9-9.5. The class given is physicochemical. As for the experimental part:
The solubility of three N-alkyl-N-methylglucamines (i.e., N-(2-ethyl-hexyl)-N-methylglucamine, N-decyl-N-methylglucamine, and N-(4-ethyl-2-methyloctyl)-N-methylglucamine) was investigated in pure MilliQ water and in a 10 wt % sodium lauryl sulfate (SLS) solution. The mixtures were heated to 80° C., ultrasonicated, and cooled to room temperature.

A short description of series [3]: High-shear foaming of N-alkyl-N-methylglucamines in commercial blender. The class given is physicochemical. To be noted: 1 wt % test substance in 10 wt % SDS, diluted to 0.05 wt % surfactant. As for the experimental part: The high-shear foaming behavior of linear and branched N-alkyl-N glucamines was investigated, as this can have an impact on their performance in home care applications. […] The solutions were heated to 80° C., ultrasonicated for 1 h, and cooled to room temperature. Finally, the as-obtained solutions were diluted with MilliQ water to obtain a 0.05 wt % surfactant solution. In agreement with the literature on branched hydrophobes, the high-shear foaming tests performed in the commercial blender indicate that the linear N-decyl-N-methylglucamine (IC10 NMG) solution foams relatively more than its branched counterpart solution. For all solutions, the initial foam volume is between 40 and 53 mL. Lauramine oxide (LAO) appears to be foamier than the N-alkyl-N-methylglucamines.

A further series relates to zein protein. The text has this:
Amine oxides with linear and branched hydrophobes from Examples 65 and 66 were compared in a screen to predict mildness of surfactants. There is a correlation between the ability of a surfactant to denature a protein and the skin irritation potential of that surfactant. The relationship is believed to result from surfactant binding to proteins like keratin, followed by the denaturation of these proteins, leading to skin irritation. A common screening test involves measuring the amount of zein (a corn protein which is insoluble in water) solubilized by a surfactant solution, the Zein Solubilization Test (Moore et al., 2003 and references therein)
For the test, 0.0750 g of zein protein is transferred into a 1.5 mL centrifuge tube. To this 1.5 mL of 1% surfactant solution is added, mixed, and placed in a 30 C incubator with mild stirring for 30 minutes. After 30 minutes has elapsed, the tube is centrifuged for 30 min at 3600 rpm. The solution is filtered through a pre-weighed 8 micron filter paper, and then dried overnight in a 50° C. oven. The insoluble zein residue is then weighed and the wt % Zein dissolved is calculated using the equation below. Each solution is analyzed in triplicate. The Zein score is normalized to a standard included in each set of tests, in this case LAE10.
% zein dissolved=(total zein added−total zein after drying Total zein added)×100

For `CCCCCCCCCCCC[N+](C)(C)Cc1ccccc1.[Cl-]` [BAC-12 linear], in the series on Candida albicans, the “MIC < 10%” value is 0.0016 Weight percent, the “MIC < 50%” value was determined as 0.00078 Weight percent and the MLC was 0.0016 Weight percent. For the same molecule, in the series with Escherichia coli, the “MIC < 10%” value was determined as 0.00078 Weight percent, the “MIC < 50%” value was found to be 0.00078 Weight percent and the MLC worked out at 0.00078 Weight percent. For the same molecule, in the series on Staphylococcus aureus, the “MIC < 10%” value turned out to be 0.0002 Weight percent, the “MIC < 50%” value came to 0.0002 Weight percent and the MLC worked out at 0.0002 Weight percent.
For `CCCCC(CC)CC(CC)C[N+](C)(C)Cc1ccccc1.[Cl-]` (stereo not shown) [BAC-b12, N-benzyl-2,4-diethyl-N,N-dimethyloctan-1-aminium chloride], in the series on Candida albicans, the “MIC < 10%” value amounted to 0.0063 Weight percent, the “MIC < 50%” value was 0.0063 Weight percent and the MLC came to 0.0063 Weight percent. For the same molecule, in the series on Escherichia coli, the “MIC < 10%” value amounted to 0.0063 Weight percent, the “MIC < 50%” value worked out at 0.0063 Weight percent and the MLC was 0.0063 Weight percent. Besides, in the series on Staphylococcus aureus, the “MIC < 10%” value was 0.00039 Weight percent, the “MIC < 50%” value is 0.00039 Weight percent and the MLC is reported as 0.00078 Weight percent.
`Cc1cc(O)cc(C)c1Cl` [Chloroxylenol]: in the series with Candida albicans, the “MIC < 10%” value was found to be 0.0083 Weight percent, the “MIC < 50%” value worked out at 0.0083 Weight percent and the MLC is recorded as over 0.0083 Weight percent. Also, in the series on Escherichia coli, the “MIC < 10%” value was over 0.0083 Weight percent, the “MIC < 50%” value is recorded as over 0.0083 Weight percent and the MLC is given as over 0.0083 Weight percent. In the series with Staphylococcus aureus, the “MIC < 10%” value is given as 0.0042 Weight percent, the “MIC < 50%” value was determined as 0.0042 Weight percent and the MLC was over 0.0083 Weight percent.
Consider `CCCCC(CC)CC(C)C=O` (stereo not shown) [Example 2, 4-ethyl-2-methyloctanal], for which the “Biodegradation (%)” value in series [1] (Day 0) amounted to 0%; in series [1] (Day 2) it was 0%; in series [1] (Day 6) it was 15%; in series [1] (Day 7), 21%; in series [1] (Day 9), 31%; in series [1] (Day 14), 47%. The “Biodegradation (%)” value was found to be 54% in series [1] (Day 19); 56% in series [1] (Day 23); 57% in series [1] (Day 28); 57% in series [1] (Day 29 (first line)); 61% in series [1] (Day 29 (second line)).
`CCCCC(CC)CC(C=O)CC` (stereo not shown) [Example 25, 2,4-diethyloctanal]: the “Biodegradation (%)” value is 0% in series [1] (Day 0); 0% in series [1] (Day 2); 0% in series [1] (Day 6); 9% in series [1] (Day 7); 27% in series [1] (Day 9); 48% in series [1] (Day 14). The “Biodegradation (%)” value in series [1] (Day 19) is 53%; in series [1] (Day 23), 53%; in series [1] (Day 28) it was 55%; in series [1] (Day 29 (first line)) it was 55%; in series [1] (Day 29 (second line)) it was 57%.
Turning to `CCCCC(CC)CN(C)C[C@H](O)[C@@H](O)[C@H](O)[C@H](O)CO` (stereo partly shown) [N-(2-ethyl-hexyl)-N-methylglucamine, N-(2-ethylhexyl)-N-methylglucamine], in series [2], the “Solubility in 10 wt % SLS” value was over 1000 ppm and the “Solubility in 10 wt % SDS” value is at least 1%.
As to `CCCCC(CC)CC(C)CN(C)C[C@H](O)[C@@H](O)[C@H](O)[C@H](O)CO` (stereo partly shown) [N-(4-ethyl-2-methyloctyl)-N-methylglucamine], in series [2], the “Solubility in pure MilliQ” value is reported as under 1000 ppm, the “Solubility in 10 wt % SLS” value is recorded as over 1000 ppm and the “Solubility in 10 wt % SDS” value is on record as at least 1%.
For `CCCCCCCCCCN(C)C[C@H](O)[C@@H](O)[C@H](O)[C@H](O)CO` [N-decyl-N-methylglucamine], in series [2], the “Solubility in pure MilliQ” value is under 1000 ppm, the “Solubility in 10 wt % SLS” value was over 1000 ppm and the “Solubility in 10 wt % SDS” value is at least 1%. In series [3], the “Foam volume after 5 seconds stirring at speed 1” value turned out to be 50 mL and the “Foam volume after 5 minutes settling” value was found to be 49 mL.
On to `Oc1cc(Cl)ccc1Oc1ccc(Cl)cc1Cl` [Triclosan], for which the “MIC < 10%” value against Candida albicans is reported as 0.0016 Weight percent; against Escherichia coli, 0.00010 Weight percent; against Staphylococcus aureus it was 0.00002 Weight percent. Further, the figures for the “MIC < 50%” value against Candida albicans, against Escherichia coli and against Staphylococcus aureus were 0.0016 Weight percent, 0.00010 Weight percent and 0.00002 Weight percent, respectively. For the same molecule, the figures for the MLC with Candida albicans, with Escherichia coli and in the series on Staphylococcus aureus were over 0.0016 Weight percent, 0.00010 Weight percent and 0.00003 Weight percent, respectively.
With `CCCCC(CC)CN(C)C[C@H](O)[C@@H](O)[C@H](O)[C@H](O)CO` (stereo partly shown) [bC10 NMG], in series [3], the “Foam volume after 5 seconds stirring at speed 1” value turned out to be 40 mL and the “Foam volume after 5 minutes settling” value stood at 38 mL.
As for `CC(=O)[O-].[Na+]` [sodium acetate, reference compound], the “Biodegradation (%)” value in series [1] (Day 0) was determined as 0%; in series [1] (Day 2) it was 32%; in series [1] (Day 6), 52%; in series [1] (Day 7) it was 54%; in series [1] (Day 9), 60%; in series [1] (Day 14) it was 66%. The “Biodegradation (%)” value worked out at 69% in series [1] (Day 19); 71% in series [1] (Day 23); 72% in series [1] (Day 28); 74% in series [1] (Day 29 (first line)); 78% in series [1] (Day 29 (second line)).
Turning to Sodium lauryl ether sulfate [SLES], the “Zein score - normalized to LAE10” value in the series on zein protein worked out at 3.488.
